US20170135996A1, “PHARMACEUTICAL DEPOT FOR N-{5-[(CYCLOPROPYLAMINO)CARBONYL]-2-METHYLPHENYL)-3-FLUORO-4-(PYRIDIN-2-YLMETHOXY)BENZAMIDE” (AstraZeneca AB, priority 2008, published 2017)

Tests used:
[1] = Systemic pharmacokinetic parameters in the rat; type: in vivo; design: systemic Vdss: unit not given here
[2] = Synovial fluid pharmacokinetics after intra-articular injection of unformulated PA; type: in vivo; conditions: rat, 15 ng in 5 μl intra-articular
Experimental: Unformulated N-{5-[(cyclopropylamino)carbonyl]-2-methylphenyl}-3-fluoro-4-(pyridin-2-ylmethoxy)benzamide was intra-articularly injected (15 ng in 5 μl injection in PBS) to rats and synovial fluid concentrations were determined at 15, 30 and 60 minutes post dose. The synovial fluid from the rat knee joint was sampled using a knee wash methodology. The knee was exposed and a transverse cut made to the patellar tendon proximal to the tibia. The knee cavity was opened up by dissection, and the knee lavaged between the tibial and femoral condyles with 3×25 μl PBS using an eppendorf pipette.

[3] = test system: rat mono-iodoacetate (MIA) model of joint pain; test: Rat mono-iodoacetate (MIA) model of joint pain, weight bearing asymmetry; type: in vivo; conditions: unformulated, 29 μg/ml (69 μM) in 5 μl intra-articular, 3 days post MIA
Experimental: All studies were carried out in a rat mono-iodoacetate (MIA) model of joint pain as a screen for analgesia of pain driven by joint inflammation and destruction (see Ivanavicius et al., 2007 Pain 128 p272). The MIA model induces an early synovitis (day 3) followed by progressive loss of articular cartilage, and subchondral bone pathology by day 14.
N-{5-[(cyclopropylamino)carbonyl]-2-methylphenyl}-3-fluoro-4-(pyridin-2-ylmethoxy)benzamide was formulated into PLGA microspheres (50:50 PLGA as in Example 1) and tested in the MIA model. Rats were injected intra-articularly with MIA on day 0. Three days post MIA (to allow disease to progress) animals were injected intra-articularly with formulated N-{5-[(cyclopropylamino)carbonyl]-2-methylphenyl}-3-fluoro-4-(pyridin-2-ylmethoxy)benzamide in 50:50 PLGA (200 μg/30 μl) or with microsphere formulation ([…]).
A dose of 29 μg/ml (69 μM) of N-{5-[(cyclopropylamino)carbonyl]-2-methylphenyl}-3-fluoro-4-(pyridin-2-ylmethoxy)benzamide was delivered in a 5 μl injection volume to give a Cmin concentration of 1 μM at 1.5 hours. The dosing was carried out 3 days post MIA at the same time point that formulated N-{5-[(cyclopropylamino)carbonyl]-2-methylphenyl}-3-fluoro-4-(pyridin-2-ylmethoxy)benzamide as the PA were dosed. […]

[4] = Hydrolytic stability of PA in the acidic microclimate of the degrading polymer; type: physicochemical; conditions: acidic microclimate created upon degradation of the polymer

systemic Vdss [1]: 1.71 kg⁻¹
clearance ([1]; in vivo, read-out: systemic Cl): 14 mL/min/kg
Clearance (Cl) [2]: 61 µL/h
Volume of distribution (Vdss) [2]: 9 µL
half-life ([2]; read-out: Half-life (t1/2) (converted)): 12 min
hydrolytic stability [4]: hydrolytically stable
SMILES: Cc1ccc(C(=O)NC2CC2)cc1NC(=O)c1ccc(OCc2ccccn2)c(F)c1 [PA, N-{5-[(cyclopropylamino)carbonyl]-2-methylphenyl}-3-fluoro-4-(pyridin-2-ylmethoxy)benzamide]
efficacy in MIA model (% weight distribution) [3]: no efficacy
